Experimental data: US20260216182A1, “PYRIDAZINE NLRP3 INHIBITOR COMPOUND, PHARMACEUTICAL COMPOSITION, AND PREPARATION METHOD THEREFOR AND USE THEREOF” (CHANGCHUN GENESCIENCE PHARMACEUTICAL CO., LTD., priority 2022, published 2026)
Read-outs that look alike come from different tables or passages of the source. Marks after values point to notes of the source that are not given here.

Key:
[1] = test system: SD rats; test: 14-day toxicity experiment on rats: safety observations; format: in vivo
Excerpt: (§1) Test Example 7 14-Day Toxicity Experiment on Rats
(§2) SD rats were orally gavaged with compound 062 and the control compound once a day for a total of 14 times. The toxic reactions caused by compound 062 and the control compound were observed and their toxicokinetics were studied.
An appropriate amount of the test compound was weighed (weighed amount=theoretical required amount/content), and fully ground and dispersed in a mortar (agate or ceramic). Then, an appropriate amount of [5% Solutol HS15 in 95% (0.2% CMC-Na)] was added and the mixture was ground until there were no obvious large particles. Then the mortar was cleaned with [5% Solutol HS15 in 95% (0.2% CMC-Na)] in small amounts several times until there was no drug powder residue observed with the naked eye. The mixture was transferred to a suitable container, well stirred and mixed, and the remaining [5% Solutol HS15 in 95% (0.2% CMC-Na)] was further added to the required volume (streaking method). The system was stirred and mixed for at least 20 min, thereby giving the test sample formulation.
(§3) Oral gavage. The drug was stirred for at least 30 min prior to administration and continuously stirred throughout the administration. The dosing frequency was once a day for 14 consecutive days, and the dosing amount was 10 mL/kg (the dosing amount was calculated based on the most recent weight).
Dosing period: All surviving animals in the main test group were observed twice a day, once before and after dosing respectively, and observed in detail at least once a week.
Observation contents: The main observation contents include (but not limited to) survival status, injection site, skin, hair, eyes, ears, nose, mouth, chest, abdomen, urogenital area, limbs, as well as breathing, movement, urination, defecation, mental or behavioral changes, etc.
Dosing period: All surviving animals were weighed at least once a week. The body weight of animals in the toxicokinetics (TK) group was only used to calculate the dosage. The body weight data were not statistically analyzed and were only presented as individual data in the summary report.
Dosing period: The food intake of the surviving animals in the main test group was weighed at least once a week, and the average food intake was expressed in g/animal/day.
• End of dosing period: once; • Blood sampling route: abdominal aorta; • Animals: Plan to dissect surviving animals; • Blood was collected into tubes containing anticoagulant (EDTA-K2), and hematological indices were detected using a Sysmex XN-1000V fully automatic blood analyzer; blood was collected into anticoagulant tubes containing sodium citrate, and coagulation indices were detected using a Sysmex CS-5100 coagulometer. The specific detection indices are as follows:
• End of dosing period: once; • Blood sampling route: abdominal aorta; • Animals: Plan to dissect surviving animals; • The animals were fasted overnight, and whole blood was collected into a test tube containing a coagulant and a separation gel. Serum was obtained by centrifugation, and serum biochemical indices were detected using a Hitachi-7180 biochemical analyzer. The specific detection indices are as follows:
• Dissection time: end of dosing period (D15); • Anesthesia method: The specifications of the anesthetic mixture are ketamine of 37.5 mg/mL and xylazine of 2.5 mg/mL. The euthanasia dose is 2-4 mL/kg of the mixture (the anesthetic dose of the animal planned for dissection is calculated based on the body weight after fasting overnight, the concentration will be recorded in the original record and presented in the summary report, and the dose can be adjusted according to the anesthetic effect) by intraperitoneal injection. […]

[2] = 14-day toxicity experiment on rats: toxicokinetics; format: in vivo, SD rats; details: for Cmax / AUC(0-t): SD, rat, plasma, po; for AUC(0-t): read-out: AUC(0-24)
Method: as §1, §2, §3
Different time points before and after administration on D1 and D14.
Group 2 to Group 7: Before dosing and 0.5 h, 1 h, 2 h, 4 h, 8 h and 24 h after dosing (before dosing on D2 and/or D15).
Whole blood was collected into a blood collection tube containing EDTA-K2, the tube was immediately and gently inverted upside down several times to mix the system thoroughly, and placed on crushed ice/ice pack. Blood was centrifuged (2000 g, 10 min) at 4° C. (set temperature, allowable temperature range: 2 to 8° C.) within 1 h after blood collection. The collected plasma was divided into two portions into separate labeled EP tubes (one for testing and one for standby testing), and stored in an ultra-low temperature refrigerator (−70° C. to −90° C.) within 2 h after collection. The samples were stored in dry ice during transportation and transfer.
The drug concentration in plasma was analyzed by using LC-MS/MS, verified blood drug concentration data was provided, and the main toxicokinetic parameters (AUC0-t, Cmax and Tmax) were calculated and compared.

[3] = test system: mouse NASH model; test: Mouse NASH model test (HFD + fructose), combination with semaglutide; format: in vivo, mice
Method: Test Example 6 Mouse NASH Model Test
After the animals arrived and acclimatized for 1 week, they were randomly divided into 2 groups. 48 mice were fed a high-fat diet (HFD) and had free access to 15% fructose water (w/w). After the animals were fed for 20 weeks, they were fasted for 6 h, and fasting blood glucose (FBG) was monitored by a blood glucose meter. Orbital blood was taken from all animals, and serum was collected by centrifugation to detect serum ALT levels. Animals were randomly divided into 6 groups according to their body weight, FBG and ALT levels. After that, the high fat feed (HFD) was replaced with the modified high fat feed (mHFD), and the mice had free access to 15% fructose water (v/w). The 8 mice in the other group were fed normal diet and water.
The first end point of the experiment: After 8 weeks of administration, the end point body weight was recorded and the animals were fasted for 6 h, and fasting blood glucose was measured with a blood glucose meter. The mice were then euthanized by CO2 and serum was collected by orbital blood sampling and stored at −80° C. for insulin and biochemical analysis. The animal's liver was taken and the liver weight was recorded. The liver was divided into four parts, one part was quick-frozen in liquid nitrogen for biochemical analysis, one part was placed in tissue fixative for pathological analysis, one part was stored in RNAlater for qPCR detection (backup for later use), and one part was quick-frozen in liquid nitrogen for possible subsequent detection.
The second end point of the experiment: 3 mice were kept in each group for 6 weeks for further observation. The end point body weight was recorded and the mice were fasted for 6 h. Fasting blood glucose was tested with a blood glucose meter. The mice were then euthanized by CO2 and serum was collected by orbital blood sampling and stored at −80° C. for insulin and biochemical analysis. The animal's liver was taken and the liver weight was recorded. The liver was divided into four parts, one part was quick-frozen in liquid nitrogen for biochemical analysis, one part was placed in tissue fixative for pathological analysis, one part was stored in RNAlater for qPCR detection (backup for later use), and one part was quick-frozen in liquid nitrogen for subsequent detection.

[4] = 30 mg/kg, 30 mpk oral, Day 1, plasma
[5] = 30 mg/kg, 30 mpk oral, Day 14, plasma
[6] = 60 mg/kg, 60 mpk oral, Day 1, plasma
[7] = 60 mg/kg, 60 mpk oral, Day 14, plasma
[8] = 100 mg/kg, 100 mpk oral, Day 1, plasma
[9] = 100 mg/kg, 100 mpk oral, Day 14, plasma

For `CC#Cc1ccc2c(-c3ccc(Cl)cc3O)nnc(NC[C@H](O)CO)c2c1` [Compound 062, (S)-3-((4-(4-chloro-2-hydroxyphenyl)-7-(prop-1-yn-1-yl)phthalazin-1-yl)amino) propan-1,2-diol], the “safety (conclusion in words)” value ([1]; 14-day rat study) was “good safety”, the Death/moribundity ([1]; 30, 60, 100 mg/kg/day oral, 14 days) was “None” and the “safety compared with the control compound” value ([1]; exposure in high-dose group 4.8 times that of control compound) was “much better than that of the control compound”. The “exposure in the high-dose group relative to the control compound” value ([2]; 100 mg/kg high-dose group) was 4.8 times, the Cmax [2, 4] was 19900 ng/mL and the AUC(0-t) [2, 4] was 279 µg·h/mL. The Cmax [2, 5] was 31700 ng/mL, the AUC(0-t) [2, 5] was 384 µg·h/mL and the Cmax [2, 6] was 41100 ng/mL. For the same compound, the AUC(0-t) [2, 6] was 622 µg·h/mL, the Cmax [2, 7] was 68600 ng/mL and the AUC(0-t) [2, 7] was 1120 µg·h/mL. The Cmax [2, 8] was 68200 ng/mL, the AUC(0-t) [2, 8] was 1120 µg·h/mL and the Cmax [2, 9] was 127000 ng/mL. For the same compound, the AUC(0-t) [2, 9] was 2120 µg·h/mL, the “rebound of mouse body weight after drug withdrawal” value ([3]; combination with 0.025 mpk semaglutide, FIG. 5) was “significantly inhibited the rebound of mouse body weight after drug withdrawal” and the food intake ([3]; combination with 0.025 mpk semaglutide, FIG. 6) was “without affecting food intake”. The “levels of ALT, AST, LDL and HDL after drug withdrawal” value ([3]; serum, combination with 0.025 mpk semaglutide, FIG. 7) was “significantly inhibited the levels of ALT, AST, LDL and HDL after drug withdrawal”.

For `CC(C)(O)CNc1nnc(-c2ccc(Cl)cc2O)c2ccncc12` [Control compound], the “animals with swelling of the left and right hind limbs and ears, females” value ([1]; 30 mg/kg) was 2/5, the “animals with swelling of the left and right hind limbs and ears, males” value ([1]; 30 mg/kg) was 4/5 and the “Gross anatomy, animals with unplanned autopsy (dead animals)” value ([1]; 100 mg/kg) was “showed discoloration of the lungs and/or liver”. For the same compound, the “weight loss before death vs before dosing, animal 4006#” value ([1]; 100 mg/kg, male, TK group, found dead D 6) was “weight loss (vs before dosing: ↓28.4%)”, the “body weight decrease before death vs before dosing, animal 4101#” value ([1]; 100 mg/kg, male, found dead D 4) was “↓6.25%); before death, animal 4006# showed” and the “body weight reduction vs. control group” value ([1]; D 7, high (100 mg/kg)) was 22.5%. For the same compound, the “body weight reduction vs. control group” value ([1]; D 7, low (30 mg/kg)) was 7.7%, the “body weight reduction vs. control group” value ([1]; D 7, medium (60 mg/kg)) was 16.7% and the “body weight reduction vs. control group” value ([1]; D 14, high (100 mg/kg)) was 23.3%. The “body weight reduction vs. control group” value ([1]; D 14, low (30 mg/kg)) was 8.5%, the “body weight reduction vs. control group” value ([1]; D 14, medium (60 mg/kg)) was 14.6% and the “#NEU increase” value ([1]; females, high (100 mg/kg)) was 687.1%. The MONO % increase ([1]; females, high (100 mg/kg)) was 290.3%, the “#MONO increase” value ([1]; females, low (30 mg/kg)) was 187.7% and the MONO % increase ([1]; females, low (30 mg/kg)) was 63.6%. For the same compound, the “#MONO increase” value ([1]; females, medium (60 mg/kg)) was 237.0%, the “#NEU increase” value ([1]; females, medium (60 mg/kg)) was 251.8% and the MONO % increase ([1]; females, medium (60 mg/kg)) was 100.6%. For the same compound, the “ALB reduction vs. control group” value ([1]; females, ≥100 mg/kg) was “females: at dose ≥100 mg/kg, ALB (↓28.5%)”, the “GLO increase vs. control group” value ([1]; females, ≥100 mg/kg) was “GLO (: ↑ 61.3%) was significantly increased” and the “#MONO increase vs. control group” value ([1]; males, high (100 mg/kg)) was 313.0%. For the same compound, the “#MONO increase vs. control group” value ([1]; males, low (30 mg/kg)) was “#MONO increased (low: ↑ 154.4%,”, the “#MONO increase vs. control group” value ([1]; males, medium (60 mg/kg)) was 215.8% and the “#EOS increase vs. control group” value ([1]; males, ≥100 mg/kg) was 816.7%. For the same compound, the “MONO % increase vs. control group” value ([1]; males, ≥100 mg/kg) was 160.3%, the “body weight gain vs. control group” value ([1]; ≥30 mg/kg, males and females) was “low body weight gain” and the Cmax [2, 4] was 17500 ng/mL. It also gave an AUC(0-t) [2, 4] of 248 µg·h/mL, a Cmax [2, 5] of 13200 ng/mL and an AUC(0-t) [2, 5] of 202 µg·h/mL. The Cmax [2, 6] was 21400 ng/mL, the AUC(0-t) [2, 6] was 360 µg·h/mL and the Cmax [2, 7] was 22400 ng/mL. It also gave an AUC(0-t) [2, 7] of 324 µg·h/mL, a Cmax [2, 8] of 24000 ng/mL and an AUC(0-t) [2, 8] of 405 µg·h/mL. For the same compound, the Cmax [2, 9] was 26700 ng/mL, the AUC(0-t) [2, 9] was 439 µg·h/mL and the “rebound of body weight after drug withdrawal” value ([3]; control compound combined with semaglutide) was “neither the control compound combined with semaglutide nor the groups of low/high dose semaglutide alone inhibited the rebound of body weight”.
